Key:
[1] = test system: CD69+B220+ cells (mouse spleen cells); experiment: B cell activation assay (IgD-stimulated CD69 on B220+ spleen cells, FACS); format: cell-based; settings: 100 nM test compound, 30 min, then IgD 3 μg/mL 4 h, read-out: CD69 @ 100 nM (% Inh)
Description: 1 Female mouse approximately 2 months old was euthanized with CO2 and the spleen removed. The tissue was homogenized with a polished glass microscope slide. The cells were collected in 5 mL complete medium (RPMI+10% FBS+pen/strep), placed in a 15 mL falcon tube and centrifuged at 500×g for 5 min. The supernatant was discarded and the pellet was resuspended in 3 mL of ACK lysis buffer (NH4Cl 0.17M, KHCO3 10 mM, EDTA-Na2 0.1 mM, pH 7.2), incubated at 37° C. for 5 min. 2 mL complete medium was added and the mixture centrifuged at 500×g for 5 min. The supernatant was discarded and the pellet resuspended in 1 mL complete medium. The mixture was passed through a […] cell strainer and collect in 50 mL falcon tube. Enough medium was added to have a total of 10 mL. The cells were counted and seeded in 24 or 48-well plate in 1 mL complete medium at 10^6 cells/mL. The plate was placed in a 37° C. incubator for 15 min. The cells were treated for 30 min at 37° C. with 100 nM test compound dissolved in 100% DMSO. 3 μL IgD (Accurate chemical and scientific corp.) was added at a final concentration of 3 μg/mL and the mixture incubated at 37° C. for 4 h. The cells were collected in 1.5 mL eppendorf tubes, centrifuged at 500×g for 5 min and then resuspended in 100 μL of PBS+2% FBS. The following antibodies were added: α-B220 PE (pharmingen #553090), α-CD69 APC (pharmingen #60689), live/dead fixable aqua dead cell stain kit (life technologies # L34957) all at 1:300, and the mixture incubated for 15 min at 4° C. in the dark. To this was added 900 μL of PBS+2% FBS and the mixture centrifuged at 500×g for 5 min. The supernatant was removed and the pellet resuspended in 300 μL of PBS+2% FBS and mixed well. The mixture was transferred to a cytometer tube. The samples were run in the FACS Canto II cytometer and quantified by the number of CD69+B220+ cells as a percentage of the total number of B220+ alive cells.

[2] = biological target: T1, BTK (Homo sapiens, UniProt Q06187); experiment: BTK kinase profiling, HotSpot radiometric assay (Reaction Biology); format: biochemical; settings: ATP 10 μM; for inhibition at 0.01 µM: compound 0.01 μM, read-out: BTK @ 0.01 μM (% Inh); for inhibition at 0.1 µM: compound 0.1 μM, read-out: BTK @ 0.1 μM (% Inh); for inhibition at 1 µM: compound 1 μM, read-out: BTK @ 1 μM (% Inh)
T1 construct: purchased Reaction Biology Corporation
Description: (§1) Compounds of the invention were profiled in a 10 dose IC50 panel against BTK and PI3Kδ, both provided by Reaction Biology Corporation.
BTK assay: In vitro profiling protein kinases was performed using the “HotSpot” assay platform. Briefly, specific kinase/substrate pairs along with required cofactors were prepared in reaction buffer. Compounds were prepared as 10 mM stock solutions in DMSO. Compounds were delivered into the reaction, followed 15-20 minutes later by addition of a mixture of ATP (Sigma, St. Louis Mo.) and ^33P ATP (Perkin Elmer, Waltham Mass.) to a final concentration of 10 μM. Reactions were carried out at RT for 120 min, followed by spotting of the reactions onto P81 ion exchange filter paper (Whatman Inc., Piscataway, N.J.). Unbound phosphate was removed by extensive washing of filters in 0.75% Phosphoric acid. […] ICso values and curve fits were obtained using Prism (GraphPad Software). Buffer Conditions: 20 mM Hepes (pH 7.5), 10 mM MgCl2, 1 mM EGTA, 0.02% Brij35, 0.02 mg/mL BSA, 0.1 mM Na3VO4, 2 mM DTT, 1% DMSO.

[3] = biological target: T2, PI3Kδ (Homo sapiens, UniProt O00329); experiment: PI3Kδ kinase profiling, HTRF PIP3 displacement assay (Reaction Biology); format: biochemical; settings: ATP 10 μM; for inhibition at 0.01 µM: compound 0.01 μM, read-out: PI3Kδ @ 0.01 μM (% Inh); for inhibition at 0.1 µM: compound 0.1 μM, read-out: PI3Kδ @ 0.1 μM (% Inh)
T2 construct: purchased Reaction Biology Corporation

[4] = biological target: T2, PI3Kδ; experiment: as above; format: biochemical; settings: compound 1 μM; ATP 10 μM; read-out: PI3Kδ @ 1 μM (% Inh)
Text: as §1
PI3Kδ assay: The PIP3 product is detected by displacement of biotin-PIP3 from an energy transfer complex consisting of Europium labeled anti-GST monoclonal antibody, a GST-tagged pleckstrin homology (PH) domain, biotinylated PIP3 and Streptavidin-Allophycocyanin (APC). Excitation of Europium in the complex results in an energy transfer to the APC and a fluorescent emission at 665 nm. The PIP3 product formed by PI3-Kinase (h) activity displaces biotin-PIP3 from the complex resulting in a loss of energy transfer and thus a decrease in signal. This is a 3-step reaction: First, the kinase reaction with PIP2 substrate is carried out in the presence of ATP (10 μM), and the reaction is quenched with stop Solution, and then finally detect by adding Detection Mixture followed by incubation (10 min). Reaction procedure: 1) Prepare substrate in freshly prepared Reaction Buffer. 2) Deliver kinase into the substrate solution and gently mix. 3) Deliver compounds in 100% DMSO (1 μM) into the kinase reaction mixture by Acoustic technology (Echo550; nanoliter range), incubate for 10 min at RT. 4) Deliver ATP into the reaction mixture to initiate the reaction. 5) Incubate for 30 min at 30° C. 6) Quench the reaction with Stop Solution. 7) Add Detection Mixture, and incubate for overnight. 8) Measure HTRF: Ex=320 nm, ratio of Em=615 nm and Em=665 nm. The emission ratio is converted into μM PIP3 production based on PIP3 standard curves. The nonlinear regression to obtain the standard curve and IC50 values are performed using Graphpad Prism software. Assay Buffer: HEPES 50 mM (pH7.0), NaN3 0.02%, BSA 0.01%, Orthovanadate 0.1 mM, 1% DMSO. Detection buffer: HEPES 10 mM (pH7.0), BSA 0.02%, KF 0.16 M, EDTA 4 mM. Substrate: 10 μM PIP2 substrate (PI(4,5)P2).

[5] = test system: CD69+B220+ cells (mouse spleen cells); experiment: B cell activation assay (IgD-stimulated CD69 on B220+ spleen cells, FACS); format: cell-based; settings: IgD 3 μg/mL 4 h

T2 sequence (O00329 whole entry): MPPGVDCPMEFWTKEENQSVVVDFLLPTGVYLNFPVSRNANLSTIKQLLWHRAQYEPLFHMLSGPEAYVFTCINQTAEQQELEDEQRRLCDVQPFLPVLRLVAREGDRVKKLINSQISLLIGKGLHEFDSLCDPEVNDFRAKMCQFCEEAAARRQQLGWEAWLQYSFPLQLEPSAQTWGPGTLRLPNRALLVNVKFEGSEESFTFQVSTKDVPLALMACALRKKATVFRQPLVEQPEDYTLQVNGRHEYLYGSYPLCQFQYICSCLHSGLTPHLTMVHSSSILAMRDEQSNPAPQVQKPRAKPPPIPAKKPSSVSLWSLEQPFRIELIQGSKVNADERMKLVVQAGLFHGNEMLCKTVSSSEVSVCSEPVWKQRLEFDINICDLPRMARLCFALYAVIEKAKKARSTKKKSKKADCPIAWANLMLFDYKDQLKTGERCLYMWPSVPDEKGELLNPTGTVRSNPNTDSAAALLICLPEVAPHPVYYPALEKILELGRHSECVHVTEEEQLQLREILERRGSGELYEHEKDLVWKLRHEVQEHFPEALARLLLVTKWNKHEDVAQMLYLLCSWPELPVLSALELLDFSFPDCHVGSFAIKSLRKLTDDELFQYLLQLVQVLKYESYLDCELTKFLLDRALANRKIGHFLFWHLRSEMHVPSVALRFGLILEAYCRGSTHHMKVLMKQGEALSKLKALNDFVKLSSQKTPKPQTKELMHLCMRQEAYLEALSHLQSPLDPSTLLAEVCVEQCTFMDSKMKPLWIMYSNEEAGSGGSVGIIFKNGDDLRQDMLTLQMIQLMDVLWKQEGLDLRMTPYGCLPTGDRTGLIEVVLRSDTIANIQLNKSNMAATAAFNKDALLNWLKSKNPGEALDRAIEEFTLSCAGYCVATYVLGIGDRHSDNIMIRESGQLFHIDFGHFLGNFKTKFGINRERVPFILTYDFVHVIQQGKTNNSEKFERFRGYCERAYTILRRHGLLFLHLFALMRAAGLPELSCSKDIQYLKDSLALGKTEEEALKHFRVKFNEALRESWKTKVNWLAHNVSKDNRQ
T2 sequence (P27986 whole entry partner): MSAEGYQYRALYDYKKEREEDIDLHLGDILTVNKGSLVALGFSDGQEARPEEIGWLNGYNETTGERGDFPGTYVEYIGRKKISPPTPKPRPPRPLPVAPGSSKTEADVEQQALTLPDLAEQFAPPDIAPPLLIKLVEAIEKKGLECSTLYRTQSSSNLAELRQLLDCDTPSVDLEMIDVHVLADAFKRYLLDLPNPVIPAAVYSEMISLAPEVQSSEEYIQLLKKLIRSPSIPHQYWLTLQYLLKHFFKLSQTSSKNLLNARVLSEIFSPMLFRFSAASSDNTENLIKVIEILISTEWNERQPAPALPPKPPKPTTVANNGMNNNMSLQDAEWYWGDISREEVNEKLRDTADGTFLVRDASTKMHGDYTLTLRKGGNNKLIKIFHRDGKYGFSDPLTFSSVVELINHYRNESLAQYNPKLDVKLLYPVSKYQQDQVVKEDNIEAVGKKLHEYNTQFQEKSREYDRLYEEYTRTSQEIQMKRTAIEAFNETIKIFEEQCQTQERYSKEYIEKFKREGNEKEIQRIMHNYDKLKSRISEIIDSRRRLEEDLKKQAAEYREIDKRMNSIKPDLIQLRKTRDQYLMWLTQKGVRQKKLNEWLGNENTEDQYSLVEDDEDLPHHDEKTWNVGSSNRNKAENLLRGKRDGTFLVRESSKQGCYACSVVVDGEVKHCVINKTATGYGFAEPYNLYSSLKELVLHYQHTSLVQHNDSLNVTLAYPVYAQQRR
T1 sequence (Q06187 whole entry): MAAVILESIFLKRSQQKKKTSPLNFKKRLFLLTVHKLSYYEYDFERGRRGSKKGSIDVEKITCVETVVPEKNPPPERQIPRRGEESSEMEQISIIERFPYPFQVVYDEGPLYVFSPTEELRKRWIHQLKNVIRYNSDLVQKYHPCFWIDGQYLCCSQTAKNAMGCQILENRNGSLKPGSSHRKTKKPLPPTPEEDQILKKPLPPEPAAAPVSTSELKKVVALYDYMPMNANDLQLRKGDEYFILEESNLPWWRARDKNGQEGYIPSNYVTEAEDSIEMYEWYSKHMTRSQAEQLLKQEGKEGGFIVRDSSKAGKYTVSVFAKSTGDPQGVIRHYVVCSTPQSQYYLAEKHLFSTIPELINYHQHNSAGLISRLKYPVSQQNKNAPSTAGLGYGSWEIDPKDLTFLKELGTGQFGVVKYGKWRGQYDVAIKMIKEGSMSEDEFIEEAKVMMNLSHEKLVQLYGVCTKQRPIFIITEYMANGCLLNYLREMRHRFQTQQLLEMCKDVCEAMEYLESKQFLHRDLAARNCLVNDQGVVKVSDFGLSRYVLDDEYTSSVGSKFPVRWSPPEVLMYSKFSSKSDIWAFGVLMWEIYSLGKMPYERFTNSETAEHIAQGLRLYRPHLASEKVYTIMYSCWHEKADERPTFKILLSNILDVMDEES

Row | inhibition at 0.01 µM [2] [%] | inhibition at 0.1 µM [2] [%] | inhibition at 0.01 µM [3] [%] | inhibition at 0.1 µM [3] [%] | inhibition at 1 µM [4] [%] | inhibition at 1 µM [2] [%] | IC50 [5] [nM] | Structure (SMILES) | inhibition at 0.1 µM [1] [%]
1 | 90.3 | 95.4 | 17.1 | 40.6 |  |  |  | C=CC(=O)N(CCn1nc(-c2ccc(Cl)c(O)c2)c2c(N)ncnc21)Cc1ccco1 [Compound 20, N-{2-[4-amino-3-(4-chloro-3-hydroxyphenyl)-1H-pyrazolo[3,4-d]pyrimidin-1-yl]ethyl}-N-(furan-2-ylmethyl)prop-2-enamide] | -82 ± 14.7
2 | 48.5 | 92.1 | 7.57 | 31.1 |  |  |  | C=CC(=O)N(CCn1nc(-c2ccc(Cl)c(O)c2)c2c(N)ncnc21)Cc1ccc(Cl)cc1 [Compound 15, N-{2-[4-amino-3-(4-chloro-3-hydroxyphenyl)-1H-pyrazolo[3,4-d]pyrimidin-1-yl]ethyl}-N-[(4-chlorophenyl)methyl]prop-2-enamide] | -103 ± 45.4
3 | 9.64 | 37.1 | 8.59 | 56.6 |  |  |  | Nc1ncnc2c1c(-c1cc(O)c(F)c(F)c1)nn2CCNc1ncccn1 [Compound 21, 5-(4-amino-1-{2-[(pyrimidin-2-yl)amino]ethyl}-1H-pyrazolo[3,4-d]pyrimidin-3-yl)-2,3-difluorophenol] | 18.2 ± 2.92
4 | 12.7 | 60.5 | 3.31 | 66.7 |  |  |  | Nc1ncnc2c1c(-c1cc(O)c(F)c(F)c1)nn2CCNCc1cccnc1 [Compound 23, 5-(4-amino-1-{2-[(pyridin-3-ylmethyl)amino]ethyl}-1H-pyrazolo[3,4-d]pyrimidin-3-yl)-2,3-difluorophenol] | 39.7 ± 10.2
5 | 62.5 | 93.1 | 20.8 | 23.4 |  |  |  | C=CC(=O)N(CCn1nc(-c2cc(F)c3c(c2)NCCO3)c2c(N)ncnc21)Cc1ccc(Cl)cc1 [Compound 18, N-{2-[4-amino-3-(8-fluoro-3,4-dihydro-2H-1,4-benzoxazin-6-yl)-1H-pyrazolo [3,4-d]pyrimidin-1-yl]ethyl}-N-[(4-chlorophenyl)methyl]prop-2-enamide] | -7.39 ± 6.26
6 | 90.3 | 96.2 | 13.6 | 41.1 |  |  |  | C=CC(=O)N(CCn1nc(-c2ccc(Cl)c(O)c2)c2c(N)ncnc21)Cc1ccc(OC)cc1 [Compound 17, N-{2-[4-amino-3-(4-chloro-3-hydroxyphenyl)-1H-pyrazolo[3,4-d]pyrimidin-1-yl]ethyl}-N-[(4-methoxyphenyl)methyl]prop-2-enamide] | -61.1 ± 47.1
7 | 96.5 | 96.7 | -32.3 | 0.74 |  |  |  | C=CC(=O)N(CCn1nc(-c2ccc(Oc3ccccc3)cc2)c2c(N)ncnc21)Cc1ccccc1 [Compound 24, N-{2-[4-amino-3-(4-phenoxyphenyl)-1H-pyrazolo[3,4-d]pyrimidin-1-yl]ethyl}-N-benzylprop-2-enamide] | 55.8 ± 9.1

The next lines start with the compound.

Row | Structure (SMILES) | inhibition at 0.01 µM [2] [%] | inhibition at 0.1 µM [2] [%] | inhibition at 0.01 µM [3] [%] | inhibition at 0.1 µM [3] [%] | inhibition at 1 µM [4] [%] | inhibition at 1 µM [2] [%] | IC50 [5] [nM] | inhibition at 0.1 µM [1] [%]
8 | C=CC(=O)N(CCn1nc(-c2cc(F)cc(OC(C)=O)c2)c2c(N)ncnc21)Cc1ccccc1 [Compound 9, 3-{4-amino-1-[2-(N-benzylprop-2-enamido)ethyl]-1H-pyrazolo [3,4-d]pyrimidin-3-yl}-5-fluorophenyl acetate] |  | 47.3 |  | 47 | 85.2 | 91.6 |  | 
9 | C=CC(=O)N(CCn1nc(-c2ccc(Cl)c(O)c2)c2c(N)ncnc21)Cc1ccc(F)cc1 [Compound 14, N-{2-[4-amino-3-(4-chloro-3-hydroxyphenyl)-1H-pyrazolo[3,4-d]pyrimidin-1-yl]ethyl}-N-[(4-fluorophenyl)methyl]prop-2-enamide] | 86.5 | 96.1 | 24.8 | 55 |  |  |  | -135 ± 55.8
10 | CCC(=O)N(CCn1nc(-c2cc(O)cc(F)c2)c2c(N)ncnc21)Cc1ccccc1 [Compound 7, N-{2-[4-amino-3-(3-fluoro-5-hydroxyphenyl)-1H-pyrazolo[3,4-d]pyrimidin-1-yl]ethyl}-N-benzylpropanamide] |  | 19.9 |  | 83.5 | 96.3 | 20.6 | 81.9 ± 6.5 | 66.5 ± 5.85
11 | C=CC(=O)N(CCn1cc(-c2ccc(Cl)c(O)c2)c2c(N)ncnc21)Cc1ccc(F)cc1 [Compound 13, N-{2-[4-amino-5-(4-chloro-3-hydroxyphenyl)-7H-pyrrolo[2,3-d]pyrimidin-7-yl]ethyl}-N-[(4-fluorophenyl)methyl]prop-2-enamide] | 95.6 | 98.6 | 14 | 43 |  |  |  | -165 ± 63
12 | Nc1ncnc2c1c(-c1cc(O)cc(F)c1)nn2CCNCc1ccccc1 [Compound 4, 3-{4-amino-1-[2-(benzylamino)ethyl]-1H-pyrazolo[3,4-d]pyrimidin-3-yl}-5-fluorophenol] | -1.37 | 14.8 | 1.78 | 68 |  |  |  | 39.1 ± 7.85
13 | Nc1ncnc2c1c(-c1cc(O)cc(F)c1)nn2CCN(Cc1ccccc1)C(=O)C1CC1 [Compound 8, N-{2-[4-amino-3-(3-fluoro-5-hydroxyphenyl)-1H-pyrazolo[3,4-d]pyrimidin-1-yl]ethyl}-N-benzylcyclopropanecarboxamide] |  | 9.54 |  | 70 | 86.1 | 12.2 |  | 

From patent US20160272645A1, “Heterocyclic Compounds and Methods of Use” (MEDIVATION TECHNOLOGIES, INC., priority 2013, published 2016)
